Laboratory results from PubChem BioAssay (NCI).
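Cells were grown in 96-well plates and exposed to each compound for 48 hours at five concentrations; endpoints were interpolated linearly between bracketing concentrations, or set to the highest concentration if not reached. TGI denotes the concentration required for complete inhibition of growth.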

Assays:
Assay in all cases: NCI anticancer screen, dose series, 48 h
KM12 colon = tested on: KM12 colon
CAKI-1 renal = tested on: CAKI-1 renal
HCT-116 colon = tested on: HCT-116 colon
OVCAR-8 ovarian = tested on: OVCAR-8 ovarian
SK-MEL-2 melanoma = tested on: SK-MEL-2 melanoma
NCI-H226 lung = tested on: NCI-H226 lung
SNB-75 CNS = tested on: SNB-75 CNS
EKVX NSCLC = tested on: EKVX NSCLC
BT-549 breast = tested on: BT-549 breast
NCI-H23 lung = tested on: NCI-H23 lung
MDA-N = tested on: MDA-N
RPMI-8226 leukemia = tested on: RPMI-8226 leukemia
A549 NSCLC = tested on: A549 NSCLC
SK-MEL-5 melanoma = tested on: SK-MEL-5 melanoma
CCRF-CEM leukemia = tested on: CCRF-CEM leukemia
HT29 colon = tested on: HT29 colon
MDA-MB-231 breast = tested on: MDA-MB-231 breast
SN12C renal = tested on: SN12C renal
HCC-2998 colon = tested on: HCC-2998 colon
LOX IMVI melanoma = tested on: LOX IMVI melanoma
K-562 leukemia = tested on: K-562 leukemia
ACHN renal = tested on: ACHN renal
RXF 393 renal = tested on: RXF 393 renal
IGROV1 ovarian = tested on: IGROV1 ovarian
M14 melanoma = tested on: M14 melanoma
UO-31 renal = tested on: UO-31 renal
UACC-62 melanoma = tested on: UACC-62 melanoma
HOP-92 NSCLC = tested on: HOP-92 NSCLC
OVCAR-5 ovarian = tested on: OVCAR-5 ovarian
HL-60(TB) leukemia = tested on: HL-60(TB) leukemia
HOP-62 NSCLC = tested on: HOP-62 NSCLC
OVCAR-3 ovarian = tested on: OVCAR-3 ovarian
MDA-MB-435 = tested on: MDA-MB-435
NCI-H522 lung = tested on: NCI-H522 lung
T-47D breast = tested on: T-47D breast
PC-3 prostate = tested on: PC-3 prostate
OVCAR-4 ovarian = tested on: OVCAR-4 ovarian
MALME-3M melanoma = tested on: MALME-3M melanoma
SF-539 CNS = tested on: SF-539 CNS
SK-MEL-28 melanoma = tested on: SK-MEL-28 melanoma
NCI/ADR-RES ovarian = tested on: NCI/ADR-RES ovarian
TK-10 renal = tested on: TK-10 renal
DU-145 prostate = tested on: DU-145 prostate
MCF7 breast = tested on: MCF7 breast
SK-OV-3 ovarian = tested on: SK-OV-3 ovarian
HCT-15 colon = tested on: HCT-15 colon
SR leukemia = tested on: SR leukemia
NCI-H460 lung = tested on: NCI-H460 lung
MOLT-4 leukemia = tested on: MOLT-4 leukemia
COLO 205 colon = tested on: COLO 205 colon
SNB-19 CNS = tested on: SNB-19 CNS
SW-620 colon = tested on: SW-620 colon
HS 578T breast = tested on: HS 578T breast
UACC-257 melanoma = tested on: UACC-257 melanoma
U251 CNS = tested on: U251 CNS
786-0 renal = tested on: 786-0 renal
SF-268 CNS = tested on: SF-268 CNS
A498 renal = tested on: A498 renal
SF-295 CNS = tested on: SF-295 CNS

O=C(O)C(Cc1c[nH]c2ccccc12)C(=O)NO (stereo not drawn)
TGI (KM12 colon): > 100 µM | TGI (CAKI-1 renal): > 100 µM | TGI (HCT-116 colon): > 100 µM | TGI (OVCAR-8 ovarian): > 100 µM | TGI (SK-MEL-2 melanoma): > 100 µM | TGI (NCI-H226 lung): > 100 µM | TGI (SNB-75 CNS): > 100 µM | TGI (EKVX NSCLC): > 100 µM | TGI (BT-549 breast): > 100 µM | TGI (NCI-H23 lung): > 100 µM | TGI (MDA-N): > 100 µM | TGI (RPMI-8226 leukemia): > 100 µM | TGI (A549 NSCLC): > 100 µM | TGI (SK-MEL-5 melanoma): > 100 µM | TGI (CCRF-CEM leukemia): > 100 µM | TGI (HT29 colon): > 100 µM | TGI (MDA-MB-231 breast): > 100 µM | TGI (SN12C renal): > 100 µM | TGI (HCC-2998 colon): > 100 µM | TGI (LOX IMVI melanoma): > 100 µM | TGI (K-562 leukemia): > 100 µM | TGI (ACHN renal): > 100 µM | TGI (RXF 393 renal): > 100 µM | TGI (IGROV1 ovarian): > 100 µM | TGI (M14 melanoma): > 100 µM | TGI (UO-31 renal): > 100 µM | TGI (UACC-62 melanoma): > 100 µM | TGI (HOP-92 NSCLC): > 100 µM | TGI (OVCAR-5 ovarian): > 100 µM | TGI (HL-60(TB) leukemia): > 100 µM | TGI (HOP-62 NSCLC): > 100 µM | TGI (OVCAR-3 ovarian): > 100 µM | TGI (MDA-MB-435): > 100 µM | TGI (NCI-H522 lung): > 100 µM | TGI (T-47D breast): > 100 µM | TGI (PC-3 prostate): > 100 µM | TGI (OVCAR-4 ovarian): > 100 µM | TGI (MALME-3M melanoma): > 100 µM | TGI (SF-539 CNS): > 100 µM | TGI (SK-MEL-28 melanoma): > 100 µM | TGI (NCI/ADR-RES ovarian): > 100 µM | TGI (TK-10 renal): > 100 µM | TGI (DU-145 prostate): > 100 µM | TGI (MCF7 breast): > 100 µM | TGI (SK-OV-3 ovarian): > 100 µM | TGI (HCT-15 colon): > 100 µM | TGI (SR leukemia): > 100 µM | TGI (NCI-H460 lung): > 100 µM | TGI (MOLT-4 leukemia): > 100 µM | TGI (COLO 205 colon): > 100 µM | TGI (SNB-19 CNS): > 100 µM | TGI (SW-620 colon): > 100 µM | TGI (HS 578T breast): > 100 µM | TGI (UACC-257 melanoma): > 100 µM | TGI (U251 CNS): > 100 µM | TGI (786-0 renal): > 100 µM | TGI (SF-268 CNS): > 100 µM | TGI (A498 renal): > 100 µM | TGI (SF-295 CNS): > 100 µM

c1ccc2cc(CN3CCC(C4CCN(Cc5ccc6ccccc6c5)CC4)CC3)ccc2c1
TGI (KM12 colon): 7.99 µM | TGI (CAKI-1 renal): 15 µM | TGI (HCT-116 colon): 18.4 µM | TGI (OVCAR-8 ovarian): 17.9 µM | TGI (SK-MEL-2 melanoma): 4.87 µM | TGI (NCI-H226 lung): 33.1 µM | TGI (SNB-75 CNS): 6.8 µM | TGI (EKVX NSCLC): 29.6 µM | TGI (BT-549 breast): 27.4 µM | TGI (NCI-H23 lung): 26.9 µM | TGI (MDA-N): 3.91 µM | TGI (RPMI-8226 leukemia): 7.44 µM | TGI (A549 NSCLC): 17.1 µM | TGI (SK-MEL-5 melanoma): 3.38 µM | TGI (CCRF-CEM leukemia): > 43.4 µM | TGI (HT29 colon): 6.42 µM | TGI (MDA-MB-231 breast): 22.1 µM | TGI (SN12C renal): 44.5 µM | TGI (HCC-2998 colon): 3.13 µM | TGI (LOX IMVI melanoma): 13.2 µM | TGI (K-562 leukemia): > 100 µM | TGI (ACHN renal): 17 µM | TGI (RXF 393 renal): 8.51 µM | TGI (IGROV1 ovarian): 22.5 µM | TGI (M14 melanoma): 3.71 µM | TGI (UO-31 renal): 3.03 µM | TGI (UACC-62 melanoma): 3.91 µM | TGI (HOP-92 NSCLC): 12.2 µM | TGI (OVCAR-5 ovarian): 24.9 µM | TGI (HL-60(TB) leukemia): 4.45 µM | TGI (HOP-62 NSCLC): 7.84 µM | TGI (OVCAR-3 ovarian): 11.1 µM | TGI (MDA-MB-435): 3.09 µM | TGI (NCI-H522 lung): 4.28 µM | TGI (T-47D breast): > 22.8 µM | TGI (PC-3 prostate): 22.9 µM | TGI (OVCAR-4 ovarian): 21.7 µM | TGI (MALME-3M melanoma): 3.71 µM | TGI (SF-539 CNS): 4.15 µM | TGI (SK-MEL-28 melanoma): 3.93 µM | TGI (NCI/ADR-RES ovarian): 22.1 µM | TGI (TK-10 renal): 13.1 µM | TGI (DU-145 prostate): 38.2 µM | TGI (MCF7 breast): 8.66 µM | TGI (SK-OV-3 ovarian): 22.4 µM | TGI (HCT-15 colon): 15.1 µM | TGI (SR leukemia): 15.6 µM | TGI (NCI-H460 lung): 11 µM | TGI (MOLT-4 leukemia): 33.3 µM | TGI (COLO 205 colon): 3.96 µM | TGI (SNB-19 CNS): 27.2 µM | TGI (SW-620 colon): 15.6 µM | TGI (HS 578T breast): 6.6 µM | TGI (UACC-257 melanoma): 3.68 µM | TGI (U251 CNS): 8.49 µM | TGI (786-0 renal): 11.1 µM | TGI (SF-268 CNS): 25.8 µM | TGI (A498 renal): 26.2 µM | TGI (SF-295 CNS): 3.74 µM
